Laboratory results taken from PubChem BioAssay AID2060511 (Molecular Pharmacology Branch, DTP, NCI, 2025).
pIC50: −log10 of the molar value. Several values for one entry are separate records, joined by “and”; a condition that tells them apart may be missing. Identical values can stand only once.

Tested on: 422866-222-R5-J1-PDC spheroids with HUVEC/MSC, viability
Assay: Anticancer human tumor 422866-222-R5-J1-PDC patient-derived pancreatic adenocarcinoma cell line growth inhibition [GQUAD]
Details: for viability, T/C: stronger effect = lower value; active = viability on the fitted dose curve at most 10% of control; inactive = the rest
Excerpt: DNA G-quadruplex Stabilizer Agents in Combinations in Complex Spheroids
A high-throughput screen of multi-cell type tumor spheroids was designed to identify active combinations of DNA G-quadruplex stabilizer agents and targeted small molecules. Complex spheroids include a stromal component modeled by human endothelial cells (HUVEC) and fibroblasts modeled by human mesenchymal stem cells (MSCs). The concentration ranges selected for each drug and investigational agent were based upon clinically achievable concentrations if the clinical Cmax of the agent was known.
Compounds. The drugs and investigational agents: pidnarulex (CX-5461; NSC782164), APTO-253 (NSC789042), BRACO-19 (NSC847499), peposertib (NSC802822), ceralasertib (NSC780249), elimusertib (NSC800525), camonsertib (NSC841442), AZD-1390 (NSC803789), olaparib (NSC753686), talazoparib (NSC767125), ART-558 (NSC835418), sotorasib (NSC818433), MRTX-1133 (NSC836407), SN-38 (NSC673596), topotecan (NSC609699), etoposide (NSC141540), doxorubicin (NSC123127), gemcitabine (NSC613327), 5-fluorouracil (NSC19893), paclitaxel (NSC125973), vemurafenib (NSC761431), panobinostat (NSC761190), R-306465 (JNJ-16241199; NSC773264), adavosertib (NSC754352), TP-3654 (NSC805149), carboplatin (NSC241240), KSQ-4279 (NSC840948), and staurosporine (NSC755774) were obtained from the National Cancer Institute (NCI) Developmental Therapeutics Program Chemical Repository (34). The FDA-approved anticancer drug set is available from the NCI Developmental Therapeutics Program. […] The stock solutions were prepared in dimethyl sulfoxide (DMSO, Sigma-Aldrich, St. Louis, MO, cat. D2650) at 800-fold the tested concentration and stored at -70 degrees C prior to their use. All drugs and investigational agents were tested over a range starting from a high concentration at or near the clinical Cmax and decreasing in half-log increments. If the clinical Cmax for an agent had not been determined, the highest concentration tested was 10 microM.
2.3 Cell Culture. All cells were maintained in an incubator at 37 degrees C and 5% CO2 with 95% humidity. The PDC lines were cultured according to standard operating procedures established by the NCI PDMR. All PDCs were thawed and cultured in Matrigel-coated flasks prepared with a working solution of 1X Ham's F-12 nutrient mix, without supplementation (Invitrogen, cat. 11765054), 100 U/mL penicillin-streptomycin (Invitrogen, cat. 15140122), and 2.5% Matrigel (Corning Inc., cat. 354248) for the first three passages. The 857933-349-R-J2-PDC line was cultured in 6C/Colon 1B media, which includes advanced DMEM/F-12 (Thermo Fisher Scientific, cat. 12634028), 10 mM HEPES (Thermo Fisher Scientific, cat. 15630080), 1X GlutaMAX supplement (Thermo Fisher Scientific, cat. 35050061), 0.1 mg/mL primocin (InvivoGen, cat. ant-pm-2), 10% defined fetal bovine serum, heat inactivated (HyClone Laboratories Inc., cat. SH30070.03HI), 50% L-WRN conditioned media (ATCC, cat. CRL-3276), 1.25 mM N-Acetyl-L-cysteine (Sigma-Aldrich, cat. A9165), 10 mM nicotinamide (Sigma-Aldrich, cat. N0636), 1X B-27 supplement (Thermo Fisher Scientific, cat. 17504044), 1X N-2 supplement (Thermo Fisher Scientific, cat. 17502048), 10 microM Y-27632 dihydrochloride (Tocris Bioscience, cat. 1254), and 50 ng/mL human EGF recombinant protein (Thermo Fisher Scientific, cat. PHG0311). The 485176-168-R4-J1-PDC line was cultured in Panc media, which includes all 6C/Colon 1B media components plus 100 ng/mL human FGF-10 (Thermo Fisher Scientific, cat. 100-26), 500 nM SB-431542 (Selleckchem, cat. S1067), and gastrin (Tocris, cat. 3006).
[…]
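Note: spheroids exposed to compounds for seven days before reading.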
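Throughout, for viability, T/C: percent viability relative to DMSO vehicle control taken as 100%.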

Nc1ccn(C2OC(CO)C(O)C2(F)F)c(=O)n1 (stereo not drawn) + Cc1[nH]c2ccc(F)cc2c1-c1nc2c3cccnc3c3ncccc3c2[nH]1
5.92: pIC50 (curve of first compound, second compound 0.316 µM)
6.31: pIC50 (curve of first compound, second compound 10 µM)
6.46: pIC50 (curve of first compound, second compound 3.16 µM)
inactive: viability, T/C (second compound 0.0316 µM, first compound 0.0316 µM) 85.1% | viability, T/C (second compound 0.0316 µM, first compound 0.1 µM) 75.8% | viability, T/C (second compound 0.0316 µM, first compound 0.316 µM) 63.3% | viability, T/C (second compound 0.0316 µM, first compound 1 µM) 46% | viability, T/C (second compound 0.0316 µM, first compound 3.16 µM) 41.1% | viability, T/C (second compound 0.0316 µM, first compound 10 µM) 41.8% | viability, T/C (second compound 0.1 µM, first compound 0.0316 µM) 83.8% | viability, T/C (second compound 0.1 µM, first compound 0.1 µM) 82.2% | viability, T/C (second compound 0.1 µM, first compound 0.316 µM) 52.5% | viability, T/C (second compound 0.1 µM, first compound 1 µM) 42.2% | viability, T/C (second compound 0.1 µM, first compound 3.16 µM) 43.7% | viability, T/C (second compound 0.1 µM, first compound 10 µM) 42.5% | viability, T/C (second compound 0.316 µM, first compound 0.0316 µM) 97.8% | viability, T/C (second compound 0.316 µM, first compound 0.1 µM) 80.9% | viability, T/C (second compound 0.316 µM, first compound 0.316 µM) 67.8% | viability, T/C (second compound 0.316 µM, first compound 1 µM) 49.9% | viability, T/C (second compound 0.316 µM, first compound 3.16 µM) 42% | viability, T/C (second compound 0.316 µM, first compound 10 µM) 35.2% | viability, T/C (second compound 1 µM, first compound 0.0316 µM) 91.5% | viability, T/C (second compound 1 µM, first compound 0.1 µM) 75.9% | viability, T/C (second compound 1 µM, first compound 0.316 µM) 53.2% | viability, T/C (second compound 1 µM, first compound 1 µM) 45.1% | viability, T/C (second compound 1 µM, first compound 3.16 µM) 45.2% | viability, T/C (second compound 1 µM, first compound 10 µM) 43.3% | viability, T/C (second compound 3.16 µM, first compound 0.0316 µM) 83.4% | viability, T/C (second compound 3.16 µM, first compound 0.1 µM) 62.3% | viability, T/C (second compound 3.16 µM, first compound 0.316 µM) 52.6% | viability, T/C (second compound 3.16 µM, first compound 1 µM) 42.3% | viability, T/C (second compound 3.16 µM, first compound 3.16 µM) 42.2% | viability, T/C (second compound 3.16 µM, first compound 10 µM) 42.9% | viability, T/C (second compound 10 µM, first compound 0.0316 µM) 72.3% | viability, T/C (second compound 10 µM, first compound 0.1 µM) 67.6% | viability, T/C (second compound 10 µM, first compound 0.316 µM) 55.4% | viability, T/C (second compound 10 µM, first compound 1 µM) 39.9% | viability, T/C (second compound 10 µM, first compound 3.16 µM) 43% | viability, T/C (second compound 10 µM, first compound 10 µM) 41.2%
6.10: pIC50 (curve of first compound, second compound 0.0316 µM)
6.37: pIC50 (curve of first compound, second compound 0.1 µM)
6.30: pIC50 (curve of first compound, second compound 1 µM)

C=CC(=O)N1CCN(c2nc(=O)n(-c3c(C)ccnc3C(C)C)c3nc(-c4c(O)cccc4F)c(F)cc23)C(C)C1 (stereo not drawn)
inactive: viability, T/C (compound 0.0316 µM) 36.5% and 39.1% and 37% | viability, T/C (compound 0.1 µM) 32.9% and 29.9% and 28.5% | viability, T/C (compound 0.316 µM) 26.3% and 28.8% and 27.6% | viability, T/C (compound 1 µM) 27.3% and 26.2% and 23% | viability, T/C (compound 3.16 µM) 28.3% and 28.8% and 27.6% | viability, T/C (compound 10 µM) 29.3% and 30.3% and 27.3%
> 7.50: pIC50 (curve of compound)

CC1COCCN1c1cc(C2(S(C)(=N)=O)CC2)nc(-c2ccnc3[nH]ccc23)n1 (stereo not drawn)
inactive: viability, T/C (compound 0.0316 µM) 81.8% and 101% and 93.1% | viability, T/C (compound 0.1 µM) 90.2% and 107% and 98.3% | viability, T/C (compound 0.316 µM) 105% and 97.1% and 114% | viability, T/C (compound 1 µM) 70.9% and 82.1% and 91.5% | viability, T/C (compound 3.16 µM) 43% and 44.8% and 50.8% | viability, T/C (compound 10 µM) 38% and 39.5% and 36.4%
5.66 and 5.56 and 5.49: pIC50 (curve of compound)

COc1cccc2c1C(=O)c1c(O)c3c(c(O)c1C2=O)CC(O)(C(=O)CO)CC3OC1CC(N)C(O)C(C)O1 (stereo not drawn)
6.38 and 6.23 and 6.09: pIC50 (curve of compound)
inactive: viability, T/C (compound 0.0316 µM) 94.3% and 90.9% and 92.6% | viability, T/C (compound 0.1 µM) 58.5% and 62.5% and 78.8% | viability, T/C (compound 0.316 µM) 61.9% and 57.1% and 68.5% | viability, T/C (compound 1 µM) 41.8% and 51.2% and 47.5% | viability, T/C (compound 3.16 µM) 35.5% and 35.9% and 29.4% | viability, T/C (compound 10 µM) 32% and 40.5% and 31.3%
